Source: patent US11168073B2, “3,3-difluoroallylamines or salts thereof and pharmaceutical compositions comprising the same” (YUHAN CORPORATION, priority 2018, dated 2021)
Counter-ions that a name gives are not always drawn.

Experiments:
Format in all cases: biochemical
recombinant human VAP-1 = target: T1, recombinant human VAP-1 (Homo sapiens, UniProt Q16853); assay: Activity evaluation on recombinant human VAP-1 (Amplex Red/HRP-coupled hydrogen peroxide assay, benzylamine substrate); details: recombinant human VAP-1, benzylamine substrate; read-out: Inhibitory Activity (IC50, nM) human VAP-1
T1 construct: purchased R&D systems
T1 sequence (Q16853 1-763): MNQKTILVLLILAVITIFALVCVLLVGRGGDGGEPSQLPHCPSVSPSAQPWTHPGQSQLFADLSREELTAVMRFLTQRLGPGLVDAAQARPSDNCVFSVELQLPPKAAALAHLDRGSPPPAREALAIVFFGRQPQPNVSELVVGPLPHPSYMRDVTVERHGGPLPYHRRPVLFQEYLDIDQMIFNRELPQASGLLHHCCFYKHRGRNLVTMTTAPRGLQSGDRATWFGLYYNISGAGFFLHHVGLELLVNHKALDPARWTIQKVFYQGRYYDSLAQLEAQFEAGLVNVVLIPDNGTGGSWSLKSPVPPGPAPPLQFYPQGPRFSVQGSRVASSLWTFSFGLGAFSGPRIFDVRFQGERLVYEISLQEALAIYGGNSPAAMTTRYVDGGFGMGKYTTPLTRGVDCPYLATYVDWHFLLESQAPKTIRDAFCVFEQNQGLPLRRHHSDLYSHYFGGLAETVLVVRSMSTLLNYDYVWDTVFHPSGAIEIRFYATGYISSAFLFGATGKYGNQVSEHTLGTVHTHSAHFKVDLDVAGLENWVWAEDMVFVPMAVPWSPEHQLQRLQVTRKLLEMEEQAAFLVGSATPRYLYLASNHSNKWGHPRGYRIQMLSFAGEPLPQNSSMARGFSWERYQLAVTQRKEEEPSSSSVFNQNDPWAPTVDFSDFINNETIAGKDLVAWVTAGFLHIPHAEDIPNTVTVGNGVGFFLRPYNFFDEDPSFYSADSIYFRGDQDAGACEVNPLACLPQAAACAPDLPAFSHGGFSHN
Method in brief: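 Recombinant human VAP-1 in 50 mM sodium phosphate pH 7.4 preincubated 30 min at 37 °C with compound (8-point 1:3 series, <1% DMSO), then 1 mM benzylamine, 200 uM Amplex Red, 1 U/mL HRP added. H2O2-derived resorufin fluorescence (ex 544/em 590) followed 1–2 h; IC50 from four-parameter fit of rate inhibition.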

[1] = target: T2, recombinant human MAO-A (monoamine oxidase-A) (Homo sapiens, UniProt P21397); assay: Activity evaluation on recombinant human MAO-A (Amplex Red/HRP-coupled assay, 0.5 mM tyramine substrate); details: 0.5 mM tyramine substrate, read-out: Inhibitory Activity (IC50, nM) MAO-A
T2 construct: purchased Sigma-Aldrich
T2 sequence (P21397 1-527): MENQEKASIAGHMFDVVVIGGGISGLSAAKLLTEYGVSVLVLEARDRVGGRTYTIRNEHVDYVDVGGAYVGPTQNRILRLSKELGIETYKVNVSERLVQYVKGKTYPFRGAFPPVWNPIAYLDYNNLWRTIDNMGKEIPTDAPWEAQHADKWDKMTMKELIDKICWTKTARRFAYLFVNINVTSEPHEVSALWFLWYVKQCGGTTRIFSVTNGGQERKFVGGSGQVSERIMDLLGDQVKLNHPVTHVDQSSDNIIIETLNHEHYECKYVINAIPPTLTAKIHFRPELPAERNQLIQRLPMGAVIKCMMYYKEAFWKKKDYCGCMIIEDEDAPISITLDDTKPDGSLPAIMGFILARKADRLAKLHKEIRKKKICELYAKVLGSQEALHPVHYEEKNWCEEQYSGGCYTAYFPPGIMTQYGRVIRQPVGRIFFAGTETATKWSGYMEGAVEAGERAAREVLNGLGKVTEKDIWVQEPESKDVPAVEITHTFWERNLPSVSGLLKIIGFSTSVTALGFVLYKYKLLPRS
Method in brief: (§1)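 Enzyme activity was measured as fluorescence rate (ex 544, em 590 nm) from resorufin formed by HRP-coupled H2O2 oxidation of 200 uM Amplex Red. Compounds were first incubated 30 min at 37 °C with enzyme at pH 7.4; substrates were 0.5 mM tyramine (MAO-A), 1 mM benzylamine (MAO-B) and 1 mM putrescine (DAO).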

[2] = target: T3, recombinant human MAO-B (monoamine oxidase-B) (Homo sapiens, UniProt P27338); assay: Activity evaluation on recombinant human MAO-B (Amplex Red/HRP-coupled assay, 1 mM benzylamine substrate); details: 1 mM benzylamine substrate, read-out: Inhibitory Activity (IC50, nM) MAO-B
T3 construct: purchased Sigma-Aldrich
T3 sequence (P27338 1-520): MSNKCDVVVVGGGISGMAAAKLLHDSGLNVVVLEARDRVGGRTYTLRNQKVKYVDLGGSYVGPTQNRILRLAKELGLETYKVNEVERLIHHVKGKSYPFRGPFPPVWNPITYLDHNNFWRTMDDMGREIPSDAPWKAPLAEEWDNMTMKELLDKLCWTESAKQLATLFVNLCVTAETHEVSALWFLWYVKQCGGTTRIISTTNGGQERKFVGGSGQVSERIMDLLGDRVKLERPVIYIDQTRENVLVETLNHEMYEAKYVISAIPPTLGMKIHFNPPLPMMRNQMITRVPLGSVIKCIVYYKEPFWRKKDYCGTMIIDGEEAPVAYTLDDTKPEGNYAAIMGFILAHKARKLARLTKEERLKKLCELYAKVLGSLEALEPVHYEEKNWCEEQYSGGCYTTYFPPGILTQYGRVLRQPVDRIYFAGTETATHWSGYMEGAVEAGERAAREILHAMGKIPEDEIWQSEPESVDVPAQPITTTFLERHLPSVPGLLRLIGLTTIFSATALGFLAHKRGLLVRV
Method in brief: as §1

[3] = target: T4, recombinant human DAO (diamine oxidase) (Homo sapiens, UniProt P19801); assay: Activity evaluation on recombinant human DAO (Amplex Red/HRP-coupled assay, 1 mM putrescine substrate); details: 1 mM putrescine substrate, read-out: Inhibitory Activity (IC50, nM) DAO
T4 construct: purchased R&D systems
T4 sequence (P19801 20-751): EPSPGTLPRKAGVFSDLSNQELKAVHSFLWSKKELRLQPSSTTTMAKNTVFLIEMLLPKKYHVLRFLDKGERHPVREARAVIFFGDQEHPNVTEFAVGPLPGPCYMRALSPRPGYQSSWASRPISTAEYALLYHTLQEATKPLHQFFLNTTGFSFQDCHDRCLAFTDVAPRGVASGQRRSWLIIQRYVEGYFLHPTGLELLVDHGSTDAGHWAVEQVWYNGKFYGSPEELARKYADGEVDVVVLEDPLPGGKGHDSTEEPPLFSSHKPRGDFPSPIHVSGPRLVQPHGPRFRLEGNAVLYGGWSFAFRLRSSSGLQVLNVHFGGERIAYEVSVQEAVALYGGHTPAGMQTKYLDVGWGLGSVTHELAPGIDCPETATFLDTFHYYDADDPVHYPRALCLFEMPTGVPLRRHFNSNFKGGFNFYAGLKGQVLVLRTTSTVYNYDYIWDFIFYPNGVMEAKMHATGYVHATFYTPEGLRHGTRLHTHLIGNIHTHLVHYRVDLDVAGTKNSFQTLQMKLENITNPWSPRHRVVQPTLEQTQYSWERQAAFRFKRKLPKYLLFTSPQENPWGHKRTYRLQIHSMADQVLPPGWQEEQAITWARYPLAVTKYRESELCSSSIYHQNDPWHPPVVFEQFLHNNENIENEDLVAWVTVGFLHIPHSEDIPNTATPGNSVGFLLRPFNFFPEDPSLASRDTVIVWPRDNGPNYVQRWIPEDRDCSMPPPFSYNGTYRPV
Method in brief: as §1

| Compound | IC50 (recombinant human VAP-1) [nM] | IC50 [1] [nM] | IC50 [2] [nM] | IC50 [3] [nM] |
| --- | --- | --- | --- | --- |
| NCC(Cn1ncn(Cc2cc3cc(-c4ccc(N5CCNCC5)cc4)ccc3s2)c1=O)=C(F)F [Example 206, 2-[2-(aminomethyl)-3,3-difluoro-allyl]-4-[[5-(4-piperazin-1-ylphenyl)benzothiophen-2-yl]methyl]-1,2,4-triazol-3-one Ditrifluoroacetate] | 2.3 | > 100000 | 14600 | 639 |
| CN(C)c1ccc(-c2ccc3sc(Cn4cnn(CC(CN)=C(F)F)c4=O)cc3c2)cn1 [Example 208, 2-[2-(aminomethyl)-3,3-difluoro-allyl]-4-[[5-[6-(dimethylamino)-3-pyridyl]benzothiophen-2-yl]methyl]-1,2,4-triazol-3-one Trifluoroacetate] | 2.5 | 89900 | 42400 | > 100000 |
| NCC(Cn1ncn(Cc2cc3cc(-c4ccc5c(c4)OCO5)ccc3s2)c1=O)=C(F)F [Example 209, 2-[2-(aminomethyl)-3,3-difluoro-allyl]-4-[[5-(1,3-benzodioxol-5-yl)benzothiophen-2-yl]methyl]-1,2,4-triazol-3-one Trifluoroacetate] | 4.3 | > 100000 | 5180 | 93700 |
| Cc1cc(-c2ccc3sc(Cn4cnn(CC(CN)=C(F)F)c4=O)cc3c2)cc2c1NC(=O)CC2 [Example 210, 6-[2-[[1-[2-(aminomethyl)-3,3-difluoro-allyl]-5-oxo-1,2,4-triazol-4-yl]methyl]benzothiophen-5-yl]-8-methyl-3,4-dihydro-1H-quinolin-2-one Trifluoroacetate] | 1.5 | > 100000 | > 100000 | 1230 |
| CN1C(=O)CCc2cc(-c3ccc4sc(Cn5cnn(CC(CN)=C(F)F)c5=O)cc4c3)ccc21 [Example 211, 6-[2-[[1-[2-(aminomethyl)-3,3-difluoro-allyl]-5-oxo-1,2,4-triazol-4-yl]methyl]benzothiophen-5-yl]-1-methyl-3,4-dihydroquinolin-2-one Trifluoroacetate] | 1.1 | 38900 | 42700 | 1860 |
| CCn1cc(-c2ccc3sc(Cn4cnn(CC(CN)=C(F)F)c4=O)cc3c2)cn1 [Example 212, 2-[2-(aminomethyl)-3,3-difluoro-allyl]-4-[[5-(1-ethylpyrazol-4-yl)benzothiophen-2-yl]methyl]-1,2,4-triazol-3-one Trifluoroacetate] | 1.5 | 79100 | > 100000 | 4320 |
| NCC(Cn1ncn(-c2cccc(-c3ccc(N4CCNCC4)nc3)n2)c1=O)=C(F)F [Example 213, 2-[2-(aminomethyl)-3,3-difluoro-allyl]-4-[6-(6-piperazin-1-yl-3-pyridyl)-2-pyridyl]-1,2,4-triazol-3-one Ditrifluoroacetate] | 2.5 | > 100000 | > 100000 | 1300 |
| NCC(Cn1ncn(-c2cccc(-c3ccc(C(=O)N4CCOCC4)cc3)n2)c1=O)=C(F)F [Example 214, 2-[2-(aminomethyl)-3,3-difluoro-allyl]-4-[6-[4-(morpholine-4-carbonyl)phenyl]-2-pyridyl]-1,2,4-triazol-3-one Trifluoroacetate] | 1.7 | > 100000 | > 100000 | 940 |
| NCC(Cn1ncn(-c2cccc(-c3cccc(N4CCNCC4)c3)n2)c1=O)=C(F)F [Example 216, 2-[2-(aminomethyl)-3,3-difluoro-allyl]-4-[6-(3-piperazin-1-ylphenyl)-2-pyridyl]-1,2,4-triazol-3-one Ditrifluoroacetate] | 1.3 | > 100000 | > 100000 | 63 |

The next molecules have a lower IC50 (recombinant human VAP-1) than those just listed; values first:

| IC50 (recombinant human VAP-1) [nM] | IC50 [1] [nM] | IC50 [2] [nM] | IC50 [3] [nM] | Compound |
| --- | --- | --- | --- | --- |
| 0.5 | > 100000 | 89900 | 41200 | CCn1cc(-c2ccc3cc(Cn4cnn(CC(CN)=C(F)F)c4=O)sc3c2)cn1 [Example 204, 2-[2-(aminomethyl)-3,3-difluoro-allyl]-4-[[6-(1-ethylpyrazol-4-yl)benzothiophen-2-yl]methyl]-1,2,4-triazol-3-one Trifluoroacetate] |
| 0.8 | > 100000 | > 100000 | 7670 | CS(=O)(=O)c1ccc(-c2ccc3sc(Cn4cnn(CC(CN)=C(F)F)c4=O)cc3c2)cc1 [Example 205, 2-[2-(aminomethyl)-3,3-difluoro-allyl]-4-[[5-(4-methylsulfonylphenyl)benzothiophen-2-yl]methyl]-1,2,4-triazol-3-one Trifluoroacetate] |
| 0.7 | > 100000 | > 100000 | > 100000 | CCn1cc(-c2ccc3sc(Cn4cnn(CC(CN)=C(F)F)c4=O)cc3c2)ccc1=O [Example 207, 5-[2-[[1-[2-(aminomethyl)-3,3-difluoro-allyl]-5-oxo-1,2,4-triazol-4-yl]methyl]benzothiophen-5-yl]-1-ethyl-pyridin-2-one Trifluoroacetate] |
| 0.7 | > 100000 | > 100000 | 280 | NCC(Cn1ncn(-c2cccc(-c3ccc(N4CCOCC4)nc3)n2)c1=O)=C(F)F [Example 215, 2-[2-(aminomethyl)-3,3-difluoro-allyl]-4-[6-(6-morpholino-3-pyridyl)-2-pyridyl]-1,2,4-triazol-3-one Trifluoroacetate] |
